This note sets out measurements from article PMC7177833, “2-Aminopyridine Analogs Inhibit Both Enzymes of the Glyoxylate Shunt in Pseudomonas aeruginosa” (International Journal of Molecular Sciences, 2020).

Structures are written as SMILES. Values after ≈ are worked out from the molar mass of the structure shown. Where two headings read alike, the source gives them in different places. Some results are limits rather than exact numbers.

For orientation: inhibition means the drop in the measured response relative to a control, in per cent. As a reminder, the MIC is the lowest concentration found to suppress growth. As usually defined, the IC50 is the concentration at which inhibition is half-maximal. A low value points to greater potency in that assay.

Assay [1] relates to P. aeruginosa PAO1. Kind of assay: Antibacterial growth assay (OD600, 18 h) in LB or M9-acetate. Format: cell-based. The settings on record: Pseudomonas aeruginosa; for inhibition at 200 µM: final optical density; for MIC: PAO1, MIC = lowest concentration inhibiting >75% of growth. As for the experimental part: Growth assays were carried out using clear, U-bottom, sterile 96-well plates (Thermo Fisher Scientific, Bishop’s Stortford, UK). P. aeruginosa PAO1 overnight cultures were diluted to a starting OD600 of 0.05 in LB medium or M9 medium supplemented with 0.5% acetate. The test compounds were added to the indicated final concentrations, and the plates were covered with gas-permeable adhesive seals (Scientific Laboratory Supplies, Nottingham, UK). Assay controls included 1% DMSO, a positive antibiotic control (ciprofloxacin, 1 µg/mL), and medium-only wells as a control for background absorbance. […]

In assay [2] the target is T1, ICLPa (isocitrate lyase from P. aeruginosa) (Pseudomonas aeruginosa, UniProt Q9I0K4).
T1 construct: made in house
T1 sequence (Q9I0K4 1-531): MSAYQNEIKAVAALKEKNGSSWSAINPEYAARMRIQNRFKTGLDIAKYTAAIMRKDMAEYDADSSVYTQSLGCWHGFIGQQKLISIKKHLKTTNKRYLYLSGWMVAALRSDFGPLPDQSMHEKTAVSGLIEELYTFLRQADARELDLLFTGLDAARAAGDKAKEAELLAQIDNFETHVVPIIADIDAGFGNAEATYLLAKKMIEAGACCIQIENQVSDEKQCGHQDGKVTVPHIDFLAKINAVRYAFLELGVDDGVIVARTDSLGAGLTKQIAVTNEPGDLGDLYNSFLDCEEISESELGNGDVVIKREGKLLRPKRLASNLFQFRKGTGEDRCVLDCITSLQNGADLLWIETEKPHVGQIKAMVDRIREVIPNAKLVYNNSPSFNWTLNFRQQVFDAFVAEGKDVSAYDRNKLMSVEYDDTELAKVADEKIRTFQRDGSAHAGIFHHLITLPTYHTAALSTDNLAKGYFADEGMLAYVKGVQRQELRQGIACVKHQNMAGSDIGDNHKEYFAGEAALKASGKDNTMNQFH
Kind of assay: Inhibition of purified ICLPa enzymatic activity. Format: biochemical. The settings on record: for inhibition at 75 µM: 75 µM compound, read-out: Enzyme Inhibition (%) at 75 µM ICLPa; for IC50: purified enzyme, 170 nM ICL. As for the experimental part:
The enzymatic activity of purified ICLPa and MSPa was assayed essentially as previously described. Compounds were added to the reaction mixtures (minus substrates) and incubated for 5 min at 37 °C. The enzyme concentration in the reaction mixtures was 170 nM for ICL and 25 nM for MS (based on the concentration of the monomer in each case). […] The reactions were initiated by the addition of pH-adjusted substrates, and the initial rates were recorded as A324 nm (for ICLPa) and A412 nm (for MSPa) using a Biospectrometer (Eppendorf, Stevenage, UK). Substrate turnover was calculated from the molar extinction coefficient of the assay products: Glyoxylate-phenylhydrazone (16,800/M/cm) for ICLPa and 2-nitro-5-thiobenzoic acid (14,150/M/cm) for MSPa.
All data fitting was performed with GraphPad Prism version 7.04 (GraphPad Software, Inc., La Jolla, CA, USA). The solid lines are the result of fitting the data to the equations denoted in relevant experimental sections. IC50 values were determined by a nonlinear fit using the equation for sigmoidal dose-response with variable slope. In all graphs, unless otherwise stated, the data points are the mean of experimental triplicates, and all error bars correspond to ± standard deviation.

For assay [3], the target named is T2, CYP1A2 (Homo sapiens, UniProt P05177).
T2 sequence (P05177 1-516): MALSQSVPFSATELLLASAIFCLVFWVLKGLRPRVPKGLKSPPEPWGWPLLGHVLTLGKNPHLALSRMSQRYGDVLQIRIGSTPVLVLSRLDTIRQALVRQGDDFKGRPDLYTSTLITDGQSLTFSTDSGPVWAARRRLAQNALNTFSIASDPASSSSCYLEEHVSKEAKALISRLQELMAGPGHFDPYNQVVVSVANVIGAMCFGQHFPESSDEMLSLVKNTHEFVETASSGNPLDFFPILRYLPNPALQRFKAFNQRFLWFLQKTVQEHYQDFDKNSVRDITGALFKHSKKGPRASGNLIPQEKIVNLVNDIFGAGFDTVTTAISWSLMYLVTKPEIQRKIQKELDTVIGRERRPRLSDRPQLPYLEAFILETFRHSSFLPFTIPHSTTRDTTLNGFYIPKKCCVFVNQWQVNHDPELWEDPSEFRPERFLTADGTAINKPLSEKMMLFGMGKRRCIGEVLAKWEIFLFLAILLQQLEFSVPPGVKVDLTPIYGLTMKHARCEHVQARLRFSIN
The experiment in a line: CYP450 inhibition in HLM, phenacetin probe. Here is the method:
The CYP450 inhibition was determined by measuring the reaction products of known CYP450 substrates (probes). Probe solutions were prepared by diluting stock solutions with buffer (100 mM Tris-HCl, pH 7.5, and 0.5 mM EDTA) to the final indicated concentrations (Figure 5), and adding 180 µL of pooled human liver microsomes (20 mg/mL) (BioIVT, West Sussex, UK). These probe solutions were dispensed (195 µL) into clear 96-well plates with low evaporation lids (Corning, Turin, Italy) and the plates were prewarmed to 37 °C in a thermomixer (Hamilton, Agrate Brianza, Italy). Next, 5 µL of the test compound or appropriate positive control (Table S4) were added to the wells and the plates were incubated for a further 5 min. Following this, the reactions were started by adding NADPH regenerating solution (50 µL, see previous Section 4.7) to each well. CYP450 mixtures containing phenacetin, rosiglitazone, mephenytoin, atorvastatin, and nifedipine probes were incubated for 10 min at 37 °C, whereas those with midazolam and diclofenac were incubated for 5 min at 37 °C. Aliquots (100 µL) from each reaction mixture were quenched in 200 µL acetonitrile, and the mixtures were sedimented at 3000 ×g for 10 min at 4 °C. The supernatants were diluted in water containing 5 ng/mL Rolipram as an internal standard for LC-MS/MS analysis. All incubations were carried out in triplicate.
Probe products were analyzed on an API4000 Qtrap mass spectrometer (Applied Biosystems/MDS SCIEX, Monza, Italy) coupled with an Acquity UPLC system (Waters, Milan, Italy) and a CTC-PAL auto-injector (CTC Analytics AG, Zwingen, Switzerland). […] The column temperature was maintained at 60 °C. The injected sample volume was 10 µL, and analytes were eluted at a flow rate of 800 µL/min in a gradient of eluent A (water with 0.1% formic acid) and eluent B (acetonitrile with 0.1% formic acid). […] The analytes were quantified in multiple reaction-monitoring mode. Data were processed, and the percentage control activity was calculated based on a comparison between the ratio of the sample peak area and the peak area.

The mark [4] stands for this setting: PAO1, LB medium, read-out: PAO1 Growth Inhibition (%) at 200 µM LB.
Setting [5] is: PAO1, M9-acetate medium, read-out: PAO1 Growth Inhibition (%) at 200 µM M9ac.
[6] abbreviates: M9 medium with 0.5% acetate, read-out: MIC M9ac.

In the case of `Nc1cc(Cl)ccn1` [Compound 2-AP, 2-amino-4-chloropyridine, reference compound], the inhibition at 200 µM in assay [1] (setting [4]) was 0%; in assay [1] (setting [5]), 8%. Further, the MIC was more than 200 µM in assay [1] (LB medium, read-out: MIC LB) and more than 200 µM in assay [1] (setting [6]). In assay [2], the inhibition at 75 µM was determined as 21%. In addition, the IC50 in assay [2] was more than 75 µM; in assay [3], more than 100 µM.
Turning to `CC(C)(C)OC(=O)/N=C(\NC(=O)OC(C)(C)C)Nc1cc(Cl)ccn1` [SB002], the inhibition at 200 µM in assay [1] (setting [4]) turned out to be 0%; in assay [1] (setting [5]), 100%. Besides, the MIC in assay [1] (LB medium, read-out: MIC LB) is more than 200 µM; in assay [1] (setting [6]), 1.6 µM (≈ 0.593 µg/mL). Also, in assay [2], the inhibition at 75 µM was 100%. The IC50 in assay [2] was 13.3 µM; in assay [3], more than 100 µM.
As to `CC(C)(C)OC(=O)/N=C(\NC(=O)OC(C)(C)C)Nc1cc(C#N)ccn1` [SB023], the inhibition at 200 µM in assay [1] (setting [4]) was found to be 0%; in assay [1] (setting [5]), 97%. Further, the minimum inhibitory concentration (MIC) in assay [1] (LB medium, read-out: MIC LB) is more than 200 µM; in assay [1] (setting [6]) it was 13.5 µM (≈ 4.88 µg/mL). Moreover, the inhibition at 75 µM in assay [2] was found to be 34.7%. Further, the IC50 in assay [2] is 92.5 µM; in assay [3] it was more than 100 µM.
